Entries after “also recorded” stand apart in the source; their conditions may differ. Where a name gives a salt, the structure may show the parent alone.
How the values were obtained:
male Sprague Dawley rats = experiment: Step-down passive avoidance task; format: in vivo, rat
Experimental: Method Non-naive male Sprague Dawley rats (SASCO St Louis) weighing between […], were housed in groups of three in a temperature and humidity controlled vivarium having a 12 hour light/dark cycle. Animals had ad lib access to food and water.
Clozapine was dissolved in 50% PEG and administered in a dose range of from 0.25 to 2 mg/kg. Both drugs were administered intravenously 5 minutes prior to training in both learning tasks
A step-down passive avoidance platform 4 (cm)×7(cm) was placed in the center of an electrified gris floor, which was contained within a large (45×45×50 cm) white translucent plexiglas enclosure having a closable lid. The bars of the grip were spaced 1.5 cm apart and were wired to a BRS-LVE shock generator/scrambler which was set to deliver a 2 mA 6 second shock. Four passive avoidance boxes were automated by customer software (Labview) and commercial interface modules (National Instruments) connected to a computer The timing and delivery of the shock as well as the latency to steo down and the number of trials taken to reach criterion during training was under the control of the computer. […]
Testing was conduced approximately 24 hours after training, Drug-free animals were placed on the platform in the box in which they were trained and the latency to step down onto the unshocked floor was recorded for one trial. […]

Dopamine Receptor D3 = target: T1, Dopamine Receptor D3 (Homo sapiens, UniProt P35462); experiment: D3 receptor binding activity (Example XXXIX)
T1 construct: expressed in transfected cells; host or cells: BHK 293 cells (so in the source)
T1 sequence (P35462 whole entry): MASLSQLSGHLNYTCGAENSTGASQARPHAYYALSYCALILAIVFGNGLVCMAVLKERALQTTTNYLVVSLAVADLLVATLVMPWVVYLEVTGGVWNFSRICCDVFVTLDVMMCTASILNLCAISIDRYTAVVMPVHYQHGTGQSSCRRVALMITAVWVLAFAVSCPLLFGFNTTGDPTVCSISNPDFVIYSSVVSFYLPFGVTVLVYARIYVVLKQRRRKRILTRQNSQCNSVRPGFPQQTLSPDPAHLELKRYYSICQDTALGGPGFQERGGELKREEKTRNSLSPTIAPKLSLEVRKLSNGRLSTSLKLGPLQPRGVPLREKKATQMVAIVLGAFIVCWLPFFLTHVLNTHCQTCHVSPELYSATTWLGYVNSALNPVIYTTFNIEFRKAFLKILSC
Experimental: (§1) Striatial tissue is dissected from adult male Sprague Dawley rats or BHK 293 cells are harvested containing recombinantly produced D2 or D3 receptors. The sample is homogenized in 100 volumes (w/vol) of 0.05 M Tris HCl buffer at 4° C. and pH 7.4. The sample is then centrifuged at 30,000× g and resuspended and rehomogenized. The sample is then centrifuged as described and the final tissue sample is frozen until use. The tissue is resuspended 1:20 (wt/vol) in 0.05 M Tris HCl buffer containing 100 mM NaCl.
(§2) Incubations are carried out at […] and contain 0.5 ml of tissue sample, 0.5 nM ^3H-raclopride and the compound of interest in a total incubation volume of 1.0 ml.
(§3) The following compounds were assayed for D2, D3, and D4 receptor binding activity using the assays described above.

[1] = target: T2, human dopamine D4 receptor subtype (Homo sapiens, UniProt P21917); experiment: D4 receptor binding, displacement of [3H]YM-09151-2; details: Example XXXIX table
T2 construct: expressed in transfected cells
T2 sequence (P21917 1-419): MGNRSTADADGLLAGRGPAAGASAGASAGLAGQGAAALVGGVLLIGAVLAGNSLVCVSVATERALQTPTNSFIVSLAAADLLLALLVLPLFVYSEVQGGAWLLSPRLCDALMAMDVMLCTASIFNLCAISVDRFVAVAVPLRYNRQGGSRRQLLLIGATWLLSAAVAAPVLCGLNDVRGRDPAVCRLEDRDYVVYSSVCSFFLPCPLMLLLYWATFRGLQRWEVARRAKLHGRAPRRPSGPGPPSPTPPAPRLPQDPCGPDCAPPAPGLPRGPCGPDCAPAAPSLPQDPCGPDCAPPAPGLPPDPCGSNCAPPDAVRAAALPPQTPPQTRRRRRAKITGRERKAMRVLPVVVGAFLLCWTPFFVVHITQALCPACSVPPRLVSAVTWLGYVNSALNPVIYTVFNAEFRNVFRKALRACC
Experimental: Assay for D4 Receptor Binding Activity
Clonal cell lines expressing the human dopamine D4 receptor subtype were harvested in PBS and the cells centrifuged and the pellets stored at −80° C. until used in the binding assay. The pellets were resuspended and the cells lysed at 4° C. in 50 mM Tris pH 7.4 buffer containing 120 mM NaCl, 1 mM EDTA and 5 mM MgCl2. The homogenate is centrifuged at 48000× g for 10 minutes at 4° C. The resulting pellet is resuspended in fresh buffer and centrifuged again. After resuspension of the pellet in fresh buffer at […] aliquot is removed for protein determination. The remaining homogenate is centrifuged as above, the supernatant removed and the pellet stored at 4° C. until needed at which time it is resuspended to a final concentration of […] with 50 mM Tris buffer (pH 7.4) and 120 mM NaCl just prior to use. Incubations were carried out for 60 minutes at 25° C. in the presence of 0.1 nM [^3H] YM-09151-2. The incubation was terminated by rapid filtration through Whatman GF/C filters and rinsed with 2×4 ml washes of chilled 50 mM Tris (pH 7.4) and 120 mM NaCl. Non-specific binding was determined with […] spiperone and radioactivity determined by coiunting in an LKB beta counter. Binding parameters were determined by non-linear least squares regression analysis, from which the inhibition constant (Ki) could be calculated for each test compound. The binding characteristics of some examples of this patent are shown in Table 2 for the dopamine D4 binding assay.

[2] = target: T3, dopamine D4 receptors in rat hippocampus (Rattus norvegicus, UniProt P30729); experiment: Binding to D4 receptors in rat hippocampus
T3 construct: from tissue; host or cells: rat hippocampus
T3 sequence (P30729 1-387): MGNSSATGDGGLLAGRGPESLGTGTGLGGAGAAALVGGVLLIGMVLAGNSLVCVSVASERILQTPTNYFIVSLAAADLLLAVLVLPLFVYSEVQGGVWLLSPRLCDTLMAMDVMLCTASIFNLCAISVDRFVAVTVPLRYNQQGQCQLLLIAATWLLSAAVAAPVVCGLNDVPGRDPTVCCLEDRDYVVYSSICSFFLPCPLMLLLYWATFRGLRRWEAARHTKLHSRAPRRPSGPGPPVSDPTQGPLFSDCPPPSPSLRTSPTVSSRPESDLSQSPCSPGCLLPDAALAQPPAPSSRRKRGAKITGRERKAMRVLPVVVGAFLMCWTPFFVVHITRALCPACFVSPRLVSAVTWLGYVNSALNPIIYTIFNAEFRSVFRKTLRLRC

[3] = target: T4, dopamine D4 receptors in human hippocampus (Homo sapiens, UniProt P21917); experiment: Binding to D4 receptors in human hippocampus
T4 construct: from tissue; host or cells: human hippocampus
T4 sequence (P21917 1-419): T2 sequence (P21917 1-419)

Dopamine Receptor D2 = Dopamine Receptor D2 (Homo sapiens, UniProt P14416); experiment: D2 receptor binding activity (Example XXXIX)
Chain of Dopamine Receptor D2 (P14416 whole entry): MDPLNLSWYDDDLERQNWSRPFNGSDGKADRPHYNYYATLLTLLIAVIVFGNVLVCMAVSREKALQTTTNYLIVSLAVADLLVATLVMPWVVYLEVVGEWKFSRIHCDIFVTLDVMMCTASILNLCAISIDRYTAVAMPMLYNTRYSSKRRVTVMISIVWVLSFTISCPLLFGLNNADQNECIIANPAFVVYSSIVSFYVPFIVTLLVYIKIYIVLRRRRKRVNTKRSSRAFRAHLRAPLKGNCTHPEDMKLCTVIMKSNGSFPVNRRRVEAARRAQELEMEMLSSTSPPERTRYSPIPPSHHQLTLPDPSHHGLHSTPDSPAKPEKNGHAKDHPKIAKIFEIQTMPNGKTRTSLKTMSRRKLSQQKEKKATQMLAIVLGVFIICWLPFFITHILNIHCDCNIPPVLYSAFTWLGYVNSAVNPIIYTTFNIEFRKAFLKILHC
Experimental: as §1, §2, §3

| Ki (Dopamine Receptor D3) [nM] | Ki [1] [nM] | Ki (Dopamine Receptor D2) [nM] | SMILES | passive avoidance retention (time on platform at retest) vs vehicle (male Sprague Dawley rats; 0.25 mg/kg i.v. 5 minutes prior to training, retest about 24 hours later, dihydrochloride, 0.25 mg/kg) | passive avoidance acquisition vs vehicle (male Sprague Dawley rats; 0.03-1.0 mg/kg i.v. 5 minutes prior to training) | antagonist binding to D4 receptors in hippocampus [2] | antagonist binding to D4 receptors in hippocampus [3] |
| --- | --- | --- | --- | --- | --- | --- | --- |
| 8200 | 2.7 |  | c1ccc(-c2ncc(CN3CCN(c4ncccn4)CC3)[nH]2)cc1 [Compound 23, 2-Phenyl-4(5)-[(4-(2-pyrimidinyl)-piperazin-1-yl)-methyl]-imidazole dihydrochloride] | significant improvement in memory; also recorded: significantly longer time | no significant differences for acquisition | antagonists binding to dopamine D4 receptors | antagonists binding to dopamine D4 receptors |
|  | 0.85 | 1030 | c1ccc(-c2nc(CN3CCN(c4ccccn4)CC3)c[nH]2)cc1 [Compound 24, 2-Phenyl-4(5)-[(4-(2-pyridyl)-piperazin-1-yl)-methyl]-imidazole dihydrochloride] |  |  | antagonists binding to dopamine D4 receptors | antagonists binding to dopamine D4 receptors |
| 169 | 5 | 239 | c1ccc(-c2ncc(CN3CCN(c4ccccc4)CC3)[nH]2)cc1 [Compound 45, 2-Phenyl-4(5)-[(4-phenyl-piperazin-1-yl)methyl]imidazole] |  |  | antagonists binding to dopamine D4 receptors | antagonists binding to dopamine D4 receptors |

From patent publication US20030018025A1, “Certain 4-aminomethyl-2-substituted imidazole derivatives and 2-aminomethyl-4-substituted imidazole derivatives: new classes of dopamine receptor subtype specific ligands” (Neurogen Corporation, Corporation of the State of Delaware, priority 1995, published 2003)
